Consider 31 compounds from the supplement of paper PMC11616607.

The subject of the first test is Kuramochi. Kind of test: drug sensitivity score (DSS) from 5-point dose-response viability curve (DSS (area-under-curve based score)); higher = more sensitive (stronger growth inhibition or killing); extreme values may be limits of the assay. Particulars: exposure time: 72 h; concentration range: 5 concentrations over 10,000-fold range. The procedure, abridged:
(§1)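 For the drug sensitivity score, obtained per cell line and drug in Breeze software, larger values mean greater sensitivity. No response corresponds to a score of zero. Ovarian cancer and normal ovarian cells were seeded at 1,500 per well into 384-well plates already holding acoustically dispensed drugs (Echo 550, DMSO or water, five concentrations over a 10,000-fold range) and incubated 3 days at 37°C, 5% CO2. CellTiter-Glo luminescence on a PHERAstar FS gave the viability readout.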
For `CC(C)[C@H](C(=O)Nc1ccc(C(=O)NO)cc1)c1ccccc1` [AR-42], the drug sensitivity score was found to be 9.5.

With `Cc1sc2c(c1C)C(c1ccc(Cl)cc1)=N[C@@H](CC(=O)Nc1ccc(OCCOCCOCCOCCNc3cccc4c3C(=O)N(C3CCC(=O)NC3=O)C4=O)cc1)c1nnc(C)n1-2` (some centres not stated) [ARV-825], the drug sensitivity score turned out to be 9.9.

As to `COc1cc(N2CCC(N3CCN(C)CC3)CC2)ccc1Nc1ncnc(Nc2ccccc2S(=O)(=O)C(C)C)n1` [ASP3026], the drug sensitivity score stood at 4.

`O=C(NC1CCNCC1)c1n[nH]cc1NC(=O)c1c(Cl)cccc1Cl` [AT7519] came in with a drug sensitivity score of 9.3.

With `O=C(Nc1c[nH]nc1-c1nc2ccc(CN3CCOCC3)cc2[nH]1)NC1CC1` [AT9283], the drug sensitivity score turned out to be 3.5.

Regarding `CC[C@H](CC#N)OC(=O)N[C@@H](C)c1cccc(NC(=O)Nc2ccc(-c3cnco3)c(OC)c2)c1` [AVN944], the drug sensitivity score came out at 8.

For the compound `COc1cc(N2CCN(C)CC2)ccc1Nc1nccc(-c2cn(C)c3cnccc23)n1` [AZ191], the drug sensitivity score is 1.4.

Take `COc1cc(OC2CCN(C)CC2)ccc1Nc1ncc2c(n1)n(C1CCCC1)c(=O)n2C` [AZ 3146]: the drug sensitivity score is 3.9.

For `CN(C)CCCOc1ccc(-c2ccc3ncc4c(c3c2)n(C2CCOCC2)c(=O)n4C)cn1` [AZD0156], the drug sensitivity score worked out at 0.2.

`N[C@@H]1CCCN(c2c(/C=C3\SC(=O)NC3=O)cccc2-c2ccccc2)C1` [AZD1208] had a drug sensitivity score of 1.7.

`Cc1cc(Nc2nc(N[C@@H](C)c3ncc(F)cn3)ncc2Cl)[nH]n1` [AZD1480] returned a drug sensitivity score of 0.

`COc1cc2ncnc(Nc3cccc(Cl)c3F)c2cc1OC(=O)N1CCN(C)C[C@H]1C` [AZD3759] had a drug sensitivity score of 0.

`Cc1[nH]nc(C(F)(F)F)c1Cc1sc2c(c1C(=O)N1C[C@](C)(O)CO1)c(=O)n(C)c(=O)n2C(C)C` [AZD3965] yielded a drug sensitivity score of 0.

In turn, `COc1cc(CCc2cc(NC(=O)c3ccc(N4CC(C)NC(C)C4)cc3)n[nH]2)cc(OC)c1` (configuration not stated) [AZD4547] had a drug sensitivity score of 0.

Consider `CN(C)C(=O)c1ccc(S(=O)(=O)c2ccc(NC(=O)[C@@](C)(O)C(F)(F)F)c(Cl)c2)cc1` [AZD7545], for which the drug sensitivity score was determined as 0.

The compound `NC(=O)Nc1cc(-c2cccc(F)c2)sc1C(=O)N[C@H]1CCCNC1` [AZD7762] yielded a drug sensitivity score of 4.2.

A further test deals with COV362. The description is as above. Particulars: exposure time: 72 h; concentration range: 5 concentrations over 10,000-fold range. The procedure, abridged: as §1
Compound `CCOc1ccn(-c2ccc(F)cc2)c(=O)c1C(=O)Nc1ccc(Oc2ccnc(N)c2Cl)c(F)c1` yielded a drug sensitivity score of 0.

Turning to `CCn1c(C(=O)N(C2CC2)C2CC2)cc2c3c(ncn3C)c(Nc3cc(C)n(C)n3)nc21`, the drug sensitivity score worked out at 0.2.

With `C[C@@]1(C(=O)Nc2ccc(F)nc2)CCCN1c1nc(Nc2cc(C3CC3)n[nH]2)c2cccn2n1`, the drug sensitivity score came to 6.5.

The compound `Cc1c(-c2ccc(N3CCc4cccc(C(=O)Nc5nc6ccccc6s5)c4C3)nc2C(=O)O)cnn1CC12CC3CC(CC(C3)C1)C2` had a drug sensitivity score of 0.

The compound `Cc1nn(C)c(COc2ccc(N3CCN(S(=O)(=O)N(C)C)CC3)cc2)c1-c1cccc2c(CCCOc3cccc4ccccc34)c(C(=O)O)n(CCN3CCOCC3)c12` had a drug sensitivity score of 2.8.

With `O=c1[nH]c(C2CCCN2)nc2c1oc1ccc(Cl)cc12` (configuration not stated), the drug sensitivity score is 0.

The compound `COc1ccc(C[C@H](NC(=O)[C@H](C)NC(=O)CN2CCOCC2)C(=O)N[C@@H](Cc2ccccc2)C(=O)C2(C)CO2)cc1` (stereo in doubt) [ONX-0914] showed a drug sensitivity score of 17.9.

Regarding `CC/C(=C(\c1ccc(O)cc1)c1ccc(OCCN(C)C)cc1)c1ccccc1` [4-hydroxytamoxifen], the drug sensitivity score is 2.

As for `Nc1ncnc2c1nc(N)n2[C@@H]1O[C@H](CO)[C@@H](O)[C@H]1O` [8-amino-adenosine], the drug sensitivity score was determined as 20.4.

`Nc1ncnc2c1nc(Cl)n2[C@@H]1O[C@H](CO)[C@@H](O)[C@H]1O` [8-chloro-adenosine] gave a drug sensitivity score of 7.6.

The compound `COc1cc2c(cc1OCCCN1CCCC1)N=C(N)C21CCC1` [A-366] returned a drug sensitivity score of 1.2.

In turn, `COc1ccc(S(=O)(=O)Nc2cccnc2Nc2ccc(O)cc2)cc1` [ABT-751] gave a drug sensitivity score of 4.3.

Take `C[C@H](Nc1ncnc2[nH]cnc12)c1cc2ccc(F)cc2nc1-c1ccccn1` [AMG319]: the drug sensitivity score was found to be 0.

Consider `COCCOc1cnc2ccn([C@H](C)c3nnc4c(F)cc(-c5cnn(C)c5)cn34)c(=O)c2c1` [AMG-337], for which the drug sensitivity score is 0.

Compound `CC1CCC(n2c3cnccc3c3cnc(Nc4ccc5c(n4)CCN(C(=O)CO)C5)nc32)CC1` (configuration not stated) [AMG-925] showed a drug sensitivity score of 0.

With `CC(C)[C@H](C(=O)Nc1ccc(C(=O)NO)cc1)c1ccccc1` [AR-42], the drug sensitivity score came out at 2.9.

`Cc1sc2c(c1C)C(c1ccc(Cl)cc1)=N[C@@H](CC(=O)Nc1ccc(OCCOCCOCCOCCNc3cccc4c3C(=O)N(C3CCC(=O)NC3=O)C4=O)cc1)c1nnc(C)n1-2` (some centres not stated) [ARV-825] registered a drug sensitivity score of 1.5.

`COc1cc(N2CCC(N3CCN(C)CC3)CC2)ccc1Nc1ncnc(Nc2ccccc2S(=O)(=O)C(C)C)n1` [ASP3026] yielded a drug sensitivity score of 3.3.

On to `O=C(NC1CCNCC1)c1n[nH]cc1NC(=O)c1c(Cl)cccc1Cl` [AT7519], for which the drug sensitivity score turned out to be 12.

In the case of `O=C(Nc1c[nH]nc1-c1nc2ccc(CN3CCOCC3)cc2[nH]1)NC1CC1` [AT9283], the drug sensitivity score is 4.4.

`CC[C@H](CC#N)OC(=O)N[C@@H](C)c1cccc(NC(=O)Nc2ccc(-c3cnco3)c(OC)c2)c1` [AVN944] returned a drug sensitivity score of 3.3.

`COc1cc(N2CCN(C)CC2)ccc1Nc1nccc(-c2cn(C)c3cnccc23)n1` [AZ191]: the drug sensitivity score is 2.2.

`COc1cc(OC2CCN(C)CC2)ccc1Nc1ncc2c(n1)n(C1CCCC1)c(=O)n2C` [AZ 3146]: the drug sensitivity score was 0.8.

`CN(C)CCCOc1ccc(-c2ccc3ncc4c(c3c2)n(C2CCOCC2)c(=O)n4C)cn1` [AZD0156]: the drug sensitivity score stood at 0.

For `N[C@@H]1CCCN(c2c(/C=C3\SC(=O)NC3=O)cccc2-c2ccccc2)C1` [AZD1208], the drug sensitivity score amounted to 0.

For the compound `Cc1cc(Nc2nc(N[C@@H](C)c3ncc(F)cn3)ncc2Cl)[nH]n1` [AZD1480], the drug sensitivity score came out at 0.

Compound `COc1cc2ncnc(Nc3cccc(Cl)c3F)c2cc1OC(=O)N1CCN(C)C[C@H]1C` [AZD3759] returned a drug sensitivity score of 0.

On to `Cc1[nH]nc(C(F)(F)F)c1Cc1sc2c(c1C(=O)N1C[C@](C)(O)CO1)c(=O)n(C)c(=O)n2C(C)C` [AZD3965], for which the drug sensitivity score came to 0.

Compound `COc1cc(CCc2cc(NC(=O)c3ccc(N4CC(C)NC(C)C4)cc3)n[nH]2)cc(OC)c1` (configuration not stated) [AZD4547] gave a drug sensitivity score of 0.

As for `CN(C)C(=O)c1ccc(S(=O)(=O)c2ccc(NC(=O)[C@@](C)(O)C(F)(F)F)c(Cl)c2)cc1` [AZD7545], the drug sensitivity score stood at 0.

In turn, `NC(=O)Nc1cc(-c2cccc(F)c2)sc1C(=O)N[C@H]1CCCNC1` [AZD7762] gave a drug sensitivity score of 7.
